Assays:
Type in all cases: cell-based, human
D5 O-neg hiPSC line = test: CHIR dose: hematopoietic/erythroid differentiation of agitated hPSC-MC aggregates; conditions: for Erythroblast expansion Fold-expansion: optimal dose of CHIR-99021, 24 days in erythroblast expansion medium (static), cumulative
Method: (§1) Human pluripotent stem cell-microcarrier (HPSC-MC) aggregates generated from different hPSC lines were differentiated using 3 different CHIR doses (5, 10 and 15 μM for 24 hours) and were evaluated for T-bra (day 2) and KDR+PDGFRβ− (day 4) expression by flow cytometry, induction of key hematopoietic transcription factors by RT-PCR (day 4), hematopoietic precursor expansion (day 14) and erythroblast expansion (day 42).
(§2) Table 2—Hematopoietic differentiation of nine human pluripotent stem cell (hPSC) lines, from expansion in agitated microcarrier culture to erythroblast expansion—This table summarises the different stages of differentiation; hPSC expansion, mesoderm induction, hematopoietic precursor and erythroblast expansion of multiple hPSC-MC aggregate lines differentiated with optimal dose of CHIR-99021. Fold-expansion of hPSC-MC aggregates following 7 days of agitated culture, hematopoietic precursors following 14 days of culture in methylcellulose medium and erythroblast expansion following 24 days in expansion medium are reported. Flow cytometric evaluation of % T-bra+ cells on day 2 and % KDR+ cells on day 4 during mesoderm induction, % CD43+ cells during hematopoietic precursor expansion, % CD235a+ cells and fetal hemoglobin expression during erythroblast expansion stage are summarised. Total erythroid cells per hPSC seeded on day 42 was calculated as number of embryoid bodies derived on day 4 per hPSC seeded*erythroblast fold expansion*percent CD235a+ erythroblast.
(§3) Analysis of Design of experiments (DoE) outcomes and evaluation of selected conditions generated by the MODDE® software allowed the development of an optimized protocol for hematopoietic mesoderm induction of human pluripotent stem cell-microcarrier (hPSC-MC) aggregates initially expanded under continuous agitation. Approximately 2 to 4 million hPSC-MC aggregates in 3 ml of Stemline® II medium were differentiated as follows: day 1; 30 ng/ml of BMP4, 50 ng/ml VEGF165, 12 μM CHIR-99021 (Selleck Chemicals, USA), 50 ng/ml Activin A, day 2; 30 ng/ml of BMP4, 50 ng/ml VEGF165, 50 ng/ml Activin A, day 3: 30 ng/ml of BMP4, 50 ng/ml VEGF165 and 20 ng/ml bFGF. Four days post-differentiation, single cells derived by TrypLE™ Express (ThermoFisher Scientific) treatment and strained through 40 μm cell strainers (Greiner Bio-one, Germany) were used for hematopoietic precursor and erythroblast expansion and erythroblast terminal maturation as detailed herein. Hematopoietic and erythroblast differentiation were monitored by flow cytometry, quantitative real-time PCR, immunoblotting and microscopic imaging. Oxygen binding affinity of differentiated erythroblast was determined using a Hemox Analyzer (TCS Scientific Corp, USA).
(§4) HPSC-MC aggregates were dissociated into single cells by treatment with TrypLE. Express (ThermoFisher Scientific) for 5 minutes at 37° C., passed through 40 μm cell strainer (Greiner Bio-one), centrifuged at 1300 rpm for 3 minutes to pellet cells, and rinsed once with phosphate buffered saline (PBS) before re-suspension in Stemline II medium. Two hundred thousand cells in 100 μl of Stemline II medium were transferred to a 6-well ultra-low attachment plate and cultured with Blast growth medium (BGM) for 2 weeks in static conditions as detailed herein.
(§5) Hematopoietic precursors were mixed with equal volume of Stemline II medium containing 50 ng/ml of SCF (STEMCELL. Technologies) and 3 U/ml EPO (Peprotech, USA), for an additional 7 days. Subsequently, cells were diluted 10-fold with PBS and pelleted by centrifugation at 3000 rpm for 10 minutes. […]

hES-3 hESC line = test: as above; conditions: for Erythroblast expansion Fold-expansion: optimal dose of CHIR-99021, 24 days in erythroblast expansion medium (static), cumulative
Method: as §1, §2, §3, §4, §5

D11 O-neg hiPSC line = test: as above
Method: as §1, §2, §3, §4, §5

[1] = test system: hES-3 microcarrier aggregates; test: capillary Western blot of Wnt/β-catenin signalling proteins; conditions: hES-3-MC; upon induction with CHIR (15 μM CHIR, 30 ng/ml BMP4, 40 ng/ml Activin A)
Method: Day 7 hES-3-MC aggregates from static or agitation conditions were subjected to differentiation using BMP4 protocol (50 ng/ml BMP4) or optimized CHIR-based protocol (30 ng/ml BMP4, 40 ng/ml Activin A and 15 μM CHIR). Cell lysates before start of differentiation (0 hours) and 24 hours after onset of differentiation were analysed for proteins involved in Wnt/β-catenin signalling (T-BRA, TCF-1 and LEF-1) and BMP4 signalling (SMAD7, SMAD1 and phospho SMAD1/5) using an automated Capillary Western Blot system (Peggy Sue). All samples including GAPDH as a protein loading control were run in parallel. (A) is an image showing digitalized chemiluminescence signals represented as band intensities. Corresponding molecular weight of detected proteins are indicated. […] Graphical representation of chemiluminescence intensity of proteins (expressed as a percentage of GAPDH expression) involved in (B) Wnt/β-catenin signalling and (C) BMP4 signalling. […]
Capillary Western blot was performed using a fully automated system, Peggy Sue (Proteinsimple, R&D, USA). Proteins were separated, detected and quantified according to manufacturer's protocol (www.proteinsimple.com) based on size separation (12-230 kDa). […] (all from Cell Signaling Technology)[1:50 diluted SMAD7 (Sigma-Aldrich)] followed by horseradish peroxidase conjugated secondary antibody and detected with Luminol/Peroxidase substrate. […]

[2] = 15 μM CHIR dose, day 14 post differentiation
[3] = 15 μM CHIR for 24 hours, day 2, flow cytometry
[4] = 15 μM CHIR for 24 hours, day 4, flow cytometry
[5] = optimal dose of CHIR-99021, 14 days in methyl cellulose medium
[6] = optimal dose of CHIR-99021, 14 days in methyl cellulose medium (static)
[7] = optimal dose of CHIR-99021, day 2
[8] = optimal dose of CHIR-99021, erythroblast expansion stage
[9] = optimal dose of CHIR-99021, fetal hemoglobin, flow cytometry

Cc1c[nH]c(-c2cnc(NCCNc3ccc(C#N)cn3)nc2-c2ccc(Cl)cc2Cl)n1 [CHIR-99021, 6-[[2-[[4-(2,4-Dichlorophenyl)-5-(5-methyl-1H-imidazol-2-yl)-2-pyrimidinyl]amino]ethyl]amino]-3-pyridinecarbonitrile]
fold-expansion of hematopoietic precursors (D5 O-neg hiPSC line; [2]): 7.99±0.82 fold | T-Bra+ cells (D5 O-neg hiPSC line; [3]): 55.6±8.26% | KDR+PDGFRβ- cells (D5 O-neg hiPSC line; [4]): 35.77±1.53% | Total erythroid cells per hPSC seeded (day 42) (D5 O-neg hiPSC line; optimal dose of CHIR-99021): 2308 | Hematopoietic precursor expansion % CD43 (D5 O-neg hiPSC line; [5]): 27.7% | Hematopoietic precursor expansion Fold-expansion (D5 O-neg hiPSC line; [6]): 7.9 fold | Erythroblast expansion Fold-expansion (D5 O-neg hiPSC line; day 42): 3712 fold | Erythroblast expansion Fold-expansion (D5 O-neg hiPSC line; day 42, listed as CHIR): 3712±1651 fold | Mesoderm induction % T-Bra (D5 O-neg hiPSC line; [7]): 55.6% | Erythroblast expansion % CD235a+ (D5 O-neg hiPSC line; [8]): 74.6% | Erythroblast expansion Hemoglobin expression (D5 O-neg hiPSC line; [9]): 99.2 | fold-expansion of hematopoietic precursors (hES-3 hESC line; [2]): 6.97±1.35 fold | T-Bra+ cells (hES-3 hESC line; [3]): 18±3.82% | KDR+PDGFRβ- cells (hES-3 hESC line; [4]): 14.6±0.81% | Total erythroid cells per hPSC seeded (day 42) (hES-3 hESC line; optimal dose of CHIR-99021): 244 | Hematopoietic precursor expansion % CD43 (hES-3 hESC line; [5]): 42.8% | Hematopoietic precursor expansion Fold-expansion (hES-3 hESC line; [6]): 6.9 fold | Erythroblast expansion Fold-expansion (hES-3 hESC line; day 42): 324 fold | Erythroblast expansion Fold-expansion (hES-3 hESC line; day 42, listed as CHIR): 324±83.97 fold | Mesoderm induction % T-Bra (hES-3 hESC line; [7]): 18% | Erythroblast expansion % CD235a+ (hES-3 hESC line; [8]): 78.5% | Erythroblast expansion Hemoglobin expression (hES-3 hESC line; [9]): 99.3 | fold-expansion of hematopoietic precursors (D11 O-neg hiPSC line; [2]): 3.2±0.33 fold | T-Bra+ cells (D11 O-neg hiPSC line; [3]): 33.4±4.10% | KDR+PDGFRβ- cells (D11 O-neg hiPSC line; [4]): 11.74±1.16% | erythroblast differentiation (D11 O-neg hiPSC line; erythroblast expansion medium, up to day 42): failed to differentiate into erythroid cells | Hematopoietic precursor expansion % CD43 (D11 O-neg hiPSC line; [5]): 17.4% | Hematopoietic precursor expansion Fold-expansion (D11 O-neg hiPSC line; [6]): 3.2 fold | Mesoderm induction % T-Bra (D11 O-neg hiPSC line; [7]): 33.4% | Mesoderm induction % KDR+ PDGFRα− (D11 O-neg hiPSC line; optimal dose of CHIR-99021, day 4): 11.7% | Wnt/β-catenin signalling proteins TCF-1, LEF-1 and T-BRA [1]: detected as early as 24 hours
